{"source": "patent US20070082903A1", "about": "“Remedy for rheumatoid arthritis” (priority 2003, published 2007)", "key": {"[1]": {"test_system": "rats with adjuvant arthritis", "conditions": "cited from earlier work"}, "[2]": {"test_system": "mice with collagen arthritis", "conditions": "cited from earlier work"}, "[3]": {"assay": "repeated oral administration toxicity test, SMP-114 concentration in serum (HPLC-fluorescence)", "type": "in vivo", "conditions": "both sexes, Crj:CD(SD), rat, rats", "method": "Next, a repeated oral administration toxicity test on Crj:CD(SD) rats aged 5 weeks was carried out for each of one month and six months (once-a-day oral administration in both cases). SMP-114 was repeatedly administered to male and female SD strain rats (10 rats per group) for one month in a dose of each of 10, 30, 100 and 300 mg/kg, and its subacute toxicity and the recovery by one month of the suspension of the administration were investigated. In addition, the time-course of SMP-114 concentration in serum after each of one run of the administration and 30 days of the repeated administration was investigated. […] In addition, the time-course of SMP-114 concentration in serum after each of one run of the administration, 3 months of the repeated administration and 6 months of the repeated administration was investigated. The SMP-114 concentration in serum was measured by an HPLC-fluorescence method (fluorescence wavelength: 319 nm) after extracting SMP-114 from each sample with diethyl ether under slight acidic conditions (pH 4.7)."}}, "note": "Read-outs that look alike come from different tables or passages of the source."}
{"molecule": "C[C@@H](c1ccc(-c2ccccc2)c(F)c1)c1cc(/N=C(/N)N2CCOCC2)on1", "note": "[SMP-114, 3-[(1S)-1-(2-fluorobiphenyl-4-yl)ethyl]-5-{[amino(morpholin-4-yl)methylene]amino}isoxazole]", "values": [{"measurement": "minimum effective amount for antiarthritic effect", "setting": "[1]; once-a-day oral administration", "result": 2.5, "unit": "mg/kg"}, {"measurement": "antiarthritic effect", "setting": "[1]; rats with adjuvant arthritis", "result": "antiarthritic effect"}, {"measurement": "antiarthritic effect", "setting": "[2]; mice with collagen arthritis", "result": "antiarthritic effect"}, {"measurement": "minimum effective amount for antiarthritic effect", "setting": "[2]; once-a-day oral administration", "result": 5, "unit": "mg/kg"}, {"measurement": "AUC(0-t)", "setting": "[3]; oral, calculated for a dose of 5 mg/kg, read-out: AUC0-24 for the exhibition of efficacy", "result": "2710 to 3580", "unit": "ng·h/mL"}, {"measurement": "AUC(0-t)", "setting": "[3]; 6 mg/kg oral once a day for 6 months, read-out: AUC0-24", "result": 3250, "unit": "ng·h/mL"}, {"measurement": "AUC(0-t)", "setting": "[3]; 10 mg/kg oral once a day for one month, read-out: AUC0-24", "result": 7160, "unit": "ng·h/mL"}]}
